Drawing on ChEMBL document CHEMBL1126394, “Synthesis of 1-(2-Indolyl)pyridinium salts: a prodrug approach to acetylcholinesterase inhibition” (Bioorg Med Chem Lett, 1992), this text covers IC50 and pKa for two compounds.

The target of one series is Acetylcholinesterase (Electrophorus electricus, UniProt O42275). Kind of series: Inhibitory activity against acetylcholinesterase as a prodrug was demonstarted.
Series [1] is described as follows: pKa value was determined. Type of series: physicochemical.

Chain of Acetylcholinesterase (O42275 whole entry): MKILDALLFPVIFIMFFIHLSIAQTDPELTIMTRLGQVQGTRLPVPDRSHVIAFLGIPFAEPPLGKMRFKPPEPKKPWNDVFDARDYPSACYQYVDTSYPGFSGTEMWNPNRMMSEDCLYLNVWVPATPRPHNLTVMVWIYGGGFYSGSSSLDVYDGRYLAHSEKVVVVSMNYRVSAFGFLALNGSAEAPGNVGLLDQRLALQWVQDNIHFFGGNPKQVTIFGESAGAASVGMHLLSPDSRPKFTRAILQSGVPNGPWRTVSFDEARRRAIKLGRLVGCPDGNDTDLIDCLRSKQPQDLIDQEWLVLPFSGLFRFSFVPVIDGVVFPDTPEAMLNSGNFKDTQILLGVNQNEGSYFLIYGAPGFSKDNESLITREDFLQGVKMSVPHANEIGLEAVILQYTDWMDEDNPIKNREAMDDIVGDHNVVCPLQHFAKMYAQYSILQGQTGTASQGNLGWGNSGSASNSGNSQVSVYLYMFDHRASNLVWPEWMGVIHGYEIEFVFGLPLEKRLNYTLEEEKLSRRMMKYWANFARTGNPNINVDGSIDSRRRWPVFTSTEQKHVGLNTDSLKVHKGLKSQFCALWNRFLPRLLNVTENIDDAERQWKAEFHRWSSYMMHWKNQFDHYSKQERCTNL

The IC50 is the concentration that gives 50% inhibition. For the compound `CC1c2cc(OC(=O)N(C)C)ccc2NC1[n+]1cccc(C(N)=O)c1` (configuration not stated), on Acetylcholinesterase, the IC50 is 50 µM.
Broadly, the pKa is the pH at which an ionisable group is half protonated. Take `CNC(=O)Oc1ccc2c(c1)[C@]1(C)CCN(C)[C@@H]1N2C` [PHYSOSTIGMINE]: the pKa in series [1] was 7.9.
